Legend:
KMT9 [1] = biological target: T1, KMT9 (Homo sapiens, UniProt Q9Y5N5); test: Microscale thermophoresis (MST) KMT9 binding; conditions: microscale thermophoresis, His-tag labelled KMT9 (20 nM); read-out: MST
T1 sequence (Q9Y5N5 1-214): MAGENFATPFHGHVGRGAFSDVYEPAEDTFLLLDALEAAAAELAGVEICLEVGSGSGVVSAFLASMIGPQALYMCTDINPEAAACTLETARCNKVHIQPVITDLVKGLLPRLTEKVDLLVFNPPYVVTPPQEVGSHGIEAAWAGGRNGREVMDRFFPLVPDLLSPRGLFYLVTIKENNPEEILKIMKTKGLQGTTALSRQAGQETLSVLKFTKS
T1 sequence (Q9UI30 1-120 isoform Q9UI30-2 partner): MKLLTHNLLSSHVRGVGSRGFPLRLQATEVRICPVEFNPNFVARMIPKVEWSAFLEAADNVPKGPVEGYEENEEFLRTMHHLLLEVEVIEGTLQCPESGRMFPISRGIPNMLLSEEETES
In short: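 His-tagged KMT9 (20 nM), RED-Tris-NTA labelled, titrated with varying compound concentrations in 25 mM HEPES pH 7.5, 100 mM NaCl, 1 mM DTT, 0.05% Tween. MST at 40% MST and 100% LED power, Nano-RED excitation; Kd binned A ≤10 nM, B 10–100, C 100–1000, D >1000 nM.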

KMT9 [2] = biological target: T1, KMT9; test: KMT9 methyltransferase inhibition assay, 3H-SAM scintillation (entries 1-154); type: biochemical; conditions: entries 1-154: 3H-SAM assay, 25 nM KMT9, 5 μM ETF1
In short: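 Final 25 nM KMT9, 5 μM ETF1 (residues 140-275), 0.3 μM 3H-SAM plus 0.7 μM SAM in pH 8.5 BTP buffer, 2 h at 30° C. TCA-quenched, filter-washed, methylation counted by scintillation; % inhibition vs DMSO and no-enzyme controls, IC50 from four-parameter fit.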

KMT9 [3] = biological target: T1, KMT9; test: KMT9 thermal shift assay (SyproOrange); type: binding; conditions: ΔTm; 500 µM compound, 2 μM KMT9, 5X SO; read-out: Thermal shift
In short: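 Recombinant KMT9 was incubated with compound and SyproOrange at 25° C in 50 mM BTP pH 8.5, 1 mM MgCl2, 1 mM DTT. It was then heated from 20° C to 95° C at 1° C per 15 s with fluorescence read each step. Tm came from a Boltzmann sigmoidal fit; ΔTm relative to DMSO control, binned in 5 K ranges.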

Row | Compound | Kd (KMT9 [1]) [nM] | IC50 (KMT9 [2]) [nM] | ΔTm at 500 µM (KMT9 [3]) [°C]
1 | CNc1ncnc2c1ccn2[C@@H]1C[C@H](CN2CCCC23CCNCC3)[C@@H](O)[C@H]1O [451 (323), (1S,2R,3R,5R)-3-((1,8-Diazaspiro[4.5]decan-1-yl)methyl)-5-(4-(methylamino)-7H-pyrrolo[2,3-d]pyrimidin-7-yl) cyclopentane-1,2-diol] | > 1000 | > 10000 | ≤ 10
2 | Nc1ncnc2c1c(Br)cn2[C@@H]1C[C@H](C(=O)NCCCNCCc2ccccc2)[C@@H](O)[C@H]1O [452 (324), (1S,2R,3S,4R)-4-(4-Amino-5-bromo-7H-pyrrolo[2,3-d]pyrimidin-7-yl)-2,3-dihydroxy-N-(3-(phenethylamino)propyl) cyclopentane-1-carboxamide] | 10 to 100 | 100 to 1000 | 15 to 20
3 | Nc1ncnc2c1c(Br)cn2[C@@H]1C[C@H](C(=O)NC[C@H]2CCCNC2)[C@@H](O)[C@H]1O [453 (325), (1S,2R,3S,4R)-4-(4-Amino-5-bromo-7H-pyrrolo[2,3-d]pyrimidin-7-yl)-2,3-dihydroxy-N-(((S)-piperidin-3-yl)methyl) cyclopentane-1-carboxamide] | 100 to 1000 | > 10000 | 10 to 15
4 | Nc1ncnc2c1c(Br)cn2[C@@H]1C[C@H](C(=O)NC[C@@H]2CCCNC2)[C@@H](O)[C@H]1O [454 (326), (1S,2R,3S,4R)-4-(4-Amino-5-bromo-7H-pyrrolo[2,3-d]pyrimidin-7-yl)-2,3-dihydroxy-N-(((R)-piperidin-3-yl)methyl) cyclopentane-1-carboxamide] | 100 to 1000 | > 10000 | 10 to 15
5 | Nc1ncnc2c1c(Br)cn2[C@@H]1C[C@H](CNC[C@H]2CCCNC2)[C@@H](O)[C@H]1O [455 (327), (1R,2S,3R,5R)-3-(4-Amino-5-bromo-7H-pyrrolo[2,3-d]pyrimidin-7-yl)-5-(((((S)-piperidin-3-yl)methyl)amino)methyl)cyclopentane-1,2-diol] | > 1000 | > 10000 | 10 to 15
6 | Nc1ncnc2c1c(Br)cn2[C@@H]1C[C@H](CNC[C@@H]2CCCNC2)[C@@H](O)[C@H]1O [456 (328), (1R,2S,3R,5R)-3-(4-Amino-5-bromo-7H-pyrrolo[2,3-d]pyrimidin-7-yl)-5-(((((R)-piperidin-3-yl)methyl)amino)methyl) cyclopentane-1,2-diol] | > 1000 | > 10000 | 10 to 15
7 | Nc1ncnc2c1c(Br)cn2[C@@H]1C[C@H](CNCCCNCCc2cccc(Oc3ccccc3)c2)[C@@H](O)[C@H]1O [457 (329)] | 10 to 100 | 100 to 1000 | 15 to 20
8 | CNc1ncnc2c1c(Br)cn2[C@@H]1C[C@H](CNCCCNCCc2cccc(Oc3ccccc3)c2)[C@@H](O)[C@H]1O [458 (330), (1R,2S,3R,5R)-3-(5-Bromo-4-(methylamino)-7H-pyrrolo[2,3-d]pyrimidin-7-yl)-5-(((3-((3-phenoxyphenethyl)amino)propyl)amino)methyl) cyclopentane-1,2-diol] | > 1000 | > 10000 | ≤ 10
9 | CCc1cn([C@@H]2C[C@H](CNCCCNCCc3cccc(Oc4ccccc4)c3)[C@@H](O)[C@H]2O)c2ncnc(N)c12 [459 (332), (1R,2S,3R,5R)-3-(4-Amino-5-ethyl-7H-pyrrolo[2,3-d]pyrimidin-7-yl)-5-(((3-((3-phenoxyphenethyl)amino)propyl)amino)methyl) cyclopentane-1,2-diol] | 10 to 100 | 1000 to 10000 | 15 to 20
10 | Nc1ncnc2c1c(C1CC1)cn2[C@@H]1C[C@H](CNCCCNCCc2cccc(Oc3ccccc3)c2)[C@@H](O)[C@H]1O [460 (333), (1R,2S,3R,5R)-3-(4-Amino-5-cyclopropyl-7H-pyrrolo[2,3-d]pyrimidin-7-yl)-5-(((3-((3-phenoxyphenethyl)amino)propyl)amino)methyl) cyclopentane-1,2-diol] | 10 to 100 | 100 to 1000 | 15 to 20
11 | Nc1ncnc2c1c(-c1ccccc1)cn2[C@@H]1C[C@H](CNCCCNCCc2cccc(Oc3ccccc3)c2)[C@@H](O)[C@H]1O [461 (334), (1R,2S,3R,5R)-3-(4-Amino-5-phenyl-7H-pyrrolo[2,3-d]pyrimidin-7-yl)-5-(((3-((3-phenoxyphenethyl)amino)propyl)amino)methyl) cyclopentane-1,2-diol] | 100 to 1000 | 100 to 1000 | 15 to 20
12 | C=Cc1cn([C@@H]2C[C@H](CNCCCNCCc3cccc(Oc4ccccc4)c3)[C@@H](O)[C@H]2O)c2ncnc(N)c12 [462 (336), (1R,2S,3R,5R)-3-{4-Amino-5-ethenylpyrrolo[2,3-d]pyrimidin-7-yl}-5-{[(3-{[2-(3-phenoxyphenyl)ethyl]amino}propyl)amino]methyl}cyclopentane-1,2-diol] | 10 to 100 | 1000 to 10000 | 15 to 20
13 | Nc1ncnc2c1c(Br)cn2[C@@H]1C[C@H](CNCCCNCCc2ccccc2)[C@@H](O)[C@H]1O [463 (337), (1R,2S,3R,5R)-3-(4-Amino-5-bromo-7H-pyrrolo[2,3-d]pyrimidin-7-yl)-5-(((3-(phenethylamino)propyl)amino)methyl) cyclopentane-1,2-diol] | 10 to 100 | > 10000 | 15 to 20
14 | C=Cc1cn([C@@H]2C[C@H](CNCCCNCCc3ccccc3)[C@@H](O)[C@H]2O)c2ncnc(N)c12 [464 (338), (1R,2S,3R,5R)-3-(4-amino-5-vinyl-7H-pyrrolo[2,3-d]pyrimidin-7-yl)-5-(((3-(phenethylamino)propyl)amino)methyl) cyclopentane-1,2-diol] | 10 to 100 | 1000 to 10000 | 10 to 15
15 | CCc1cn([C@@H]2C[C@H](CNCCCNCCc3ccccc3)[C@@H](O)[C@H]2O)c2ncnc(N)c12 [465 (339), (1R,2S,3R,5R)-3-{4-amino-5-ethylpyrrolo[2,3-d]pyrimidin-7-yl}-5-[{{3-[(2-phenylethyl)amino]propyl}amino)methyl]cyclopentane-1,2-diol] | 100 to 1000 | 1000 to 10000 | 10 to 15
16 | Nc1ncnc2c1c(-c1ccccc1)cn2[C@@H]1C[C@H](CNCCCNCCc2ccccc2)[C@@H](O)[C@H]1O [466 (340), (1R,2S,3R,5R)-3-{4-amino-5-phenylpyrrolo[2,3-d]pyrimidin-7-yl}-5-[({3-[(2-phenylethyl)amino]propyl}amino)methyl]cyclopentane-1,2-diol] | 100 to 1000 | 100 to 1000 | 10 to 15
17 | Cc1cn([C@@H]2C[C@H](CNCCCNCCc3ccccc3)[C@@H](O)[C@H]2O)c2ncnc(N)c12 [467 (341), (1R,2S,3R,5R)-3-(4-Amino-5-methyl-7H-pyrrolo[2,3-d]pyrimidin-7-yl)-5-(((3-(phenethylamino)propyl)amino)methyl) cyclopentane-1,2-diol] | 100 to 1000 | 1000 to 10000 | 10 to 15
18 | Nc1ncnc2c1c(C1CC1)cn2[C@@H]1C[C@H](CNCCCNCCc2ccccc2)[C@@H](O)[C@H]1O [468 (342), (1R,2S,3R,5R)-3-(4-Amino-5-cyclopropyl-7H-pyrrolo[2,3-d]pyrimidin-7-yl)-5-(((3-(phenethylamino)propyl)amino)methyl) cyclopentane-1,2-diol] | 100 to 1000 | 1000 to 10000 | 15 to 20
19 | CCC(C)c1cn([C@@H]2C[C@H](CNCCCNCCc3ccccc3)[C@@H](O)[C@H]2O)c2ncnc(N)c12 (stereo partly drawn) [469 (343), (1R,2S,3R,5R)-3-(4-Amino-5-(sec-butyl)-7H-pyrrolo[2,3-d]pyrimidin-7-yl)-5-(((3-(phenethylamino)propyl)amino)methyl) cyclopentane-1,2-diol] | 100 to 1000 | 1000 to 10000 | 10 to 15
20 | Nc1ncnc2c1c(-c1ccncc1)cn2[C@@H]1C[C@H](CNCCCNCCc2ccccc2)[C@@H](O)[C@H]1O [470 (344), (1R,2S,3R,5R)-3-(4-Amino-5-(pyridin-4-yl)-7H-pyrrolo[2,3-d]pyrimidin-7-yl)-5-(((3-(phenethylamino)propyl)amino)methyl) cyclopentane-1,2-diol] | 100 to 1000 | 100 to 1000 | 10 to 15
21 | Nc1ncnc2c1c(-c1ccncn1)cn2[C@@H]1C[C@H](CNCCCNCCc2ccccc2)[C@@H](O)[C@H]1O [471 (345), (1R,2S,3R,5R)-3-(4-Amino-5-(pyrimidin-4-yl)-7H-pyrrolo[2,3-d]pyrimidin-7-yl)-5-(((3-(phenethylamino)propyl)amino)methyl) cyclopentane-1,2-diol] | 100 to 1000 | 100 to 1000 | 15 to 20
